Experimental data taken from patent US20110040086A1, “Novel Beta-Lactam Antibiotics, Methods for Their Production, and Their Use” (DRITTE PATENTPORTFOLIO BETEILIGUNGSGESELLSCHAFT MB, priority 2007, published 2011).

What was measured:
[1] = tested on: Bacillus megaterium SBUG 1152; assay: agar diffusion test (Test System 1, antimicrobial effect); format: cell-based
In short: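 Paper discs loaded with 10 μg, 50 μg or 100 μg of test substance (methanol or water solution) placed on nutrient agar seeded with 10^6 cells of a 17-h B. megaterium culture. After 20 h at 37° C., zone of inhibition measured as diameter in mm.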

[2] = tested on: B. subtilis AWD 166; assay: agar diffusion test (antimicrobial effect); format: cell-based, Bacillus subtilis
In short: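 Inhibition zone diameters (mm) read after 20 h incubation at 37 °C. Discs carried 10 μg, 50 μg or 100 μg of test substance, dissolved in methanol or distilled water, on agar inoculated with B. subtilis AWD 166 for dense but separate colonies.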

[3] = tested on: Escherichia coli SBUG 1135; assay: agar diffusion test (Test System 1, antimicrobial effect); format: cell-based
In short: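 Disc diffusion: compound at 10 μg, 50 μg, 100 μg on sensi-discs, three per plate of nutrient agar seeded with ~10^6 E. coli SBUG 1135 (overnight culture, 17 h, 37° C, diluted 1:100). After 20 h incubation at 37° C, zone diameter recorded in mm.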

[4] = tested on: Enterococcus faecalis 769; assay: agar diffusion test (Test System II, multi-resistant germs); format: cell-based; design: key: r = resistant (no detectable zone of inhibition)
In short: (§1)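 Stepped amounts of each substance (10, 50, 100 μg) were applied to carrier discs from methanol or water according to solubility. These were laid on Müller-Hinton agar II inoculated at McFarland 0.5, and zones of inhibition were read following overnight incubation (18-20 h) at 37 °C.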

[5] = tested on: Staphylococcus aureus 315; assay: as above; format: cell-based; design: key: r = resistant (no detectable zone of inhibition)
In short: as §1

[6] = tested on: E. faecalis 945; assay: as above; format: cell-based, Enterococcus faecalis; design: key: r = resistant (no detectable zone of inhibition)
In short: as §1

[7] = tested on: S. aureus 33490; assay: as above; format: cell-based, Staphylococcus aureus; design: key: r = resistant (no detectable zone of inhibition)
In short: as §1

[8] = tested on: S. aureus 34289; assay: as above; format: cell-based, Staphylococcus aureus; design: key: r = resistant (no detectable zone of inhibition)
In short: as §1

[9] = tested on: S. aureus 36881; assay: as above; format: cell-based, Staphylococcus aureus; design: key: r = resistant (no detectable zone of inhibition)
In short: as §1

[10] = tested on: S. aureus 39105; assay: as above; format: cell-based, Staphylococcus aureus; design: key: r = resistant (no detectable zone of inhibition)
In short: as §1

[11] = tested on: S. aureus 520; assay: as above; format: cell-based, Staphylococcus aureus; design: key: r = resistant (no detectable zone of inhibition)
In short: as §1

[12] = tested on: S. aureus 526; assay: as above; format: cell-based, Staphylococcus aureus; design: key: r = resistant (no detectable zone of inhibition)
In short: as §1

[13] = tested on: S. aureus North Germany strain; assay: as above; format: cell-based, Staphylococcus aureus; design: key: r = resistant (no detectable zone of inhibition)
In short: as §1

[14] = tested on: S. aureus 38418; assay: as above; format: cell-based, Staphylococcus aureus
In short: as §1

[15] = tested on: S. aureus ATCC 6538; assay: as above; format: cell-based, Staphylococcus aureus
In short: as §1

[16] = tested on: S. epidermidis 1068; assay: as above; format: cell-based, Staphylococcus epidermidis
In short: as §1

[17] = tested on: S. epidermidis 1071; assay: as above; format: cell-based, Staphylococcus epidermidis
In short: as §1

[18] = tested on: S. epidermidis 563; assay: as above; format: cell-based, Staphylococcus epidermidis
In short: as §1

[19] = tested on: S. epidermidis 847; assay: as above; format: cell-based, Staphylococcus epidermidis
In short: as §1

[20] = tested on: S. epidermidis 125; assay: as above; format: cell-based, Staphylococcus epidermidis
In short: as §1

[21] = logP value by HPLC according to Donovan et al.; settings: HPLC with methanol/0.1% phosphoric acid gradient, pH 2
Experimental: • Operating temperature 18-24° C. • Flow 1.5 mL/min • Linear gradient (methanol/0.1% phosphoric acid pH 2) from 10% to 100% methanol in 9.4 min, equilibrium time between 2 runs 6 min
ca. 0.5 mg of analyte is added to 0.5 ml of a standard solution (440 mg methyl phenyl sulfonate and 380 μl toluene in 150 mL methanol). 2 μl of this sample solution is injected.
Because the distribution coefficients of the two standards running in each test are known, the distribution coefficient of the analytes can be determined from the relationships of the analyte/standard retention times.

CC1=C(C(=O)O)N2C(=O)[C@@H](NC(=O)[C@H](N)c3ccc(O)cc3)[C@H]2SC1 [2a, Cefadroxil, reference compound]
Diameter of zone of inhibition ([1]; Quantity n 0.019): 36^1 mm
Diameter of zone of inhibition ([1]; Quantity n 0.1): 38 mm
Diameter of zone of inhibition ([1]; Quantity n 0.19): 40 mm
Diameter of zone of inhibition ([2]; Quantity n 0.019): 36 mm
Diameter of zone of inhibition ([2]; Quantity n 0.1): 38 mm
Diameter of zone of inhibition ([2]; Quantity n 0.19): 40 mm
Diameter of zone of inhibition ([3]; Quantity n 0.019): 18 mm
Diameter of zone of inhibition ([3]; Quantity n 0.1): 22 mm
Diameter of zone of inhibition ([3]; Quantity n 0.19): 26 mm
Diameter of zone of inhibition ([4]; Quantity n 0.019): r
Diameter of zone of inhibition ([4]; Quantity n 0.1): 10 mm
Diameter of zone of inhibition ([4]; Quantity n 0.19): 14 mm
Diameter of zone of inhibition ([5]; Quantity n 0.019): r
Diameter of zone of inhibition ([5]; Quantity n 0.1): r
Diameter of zone of inhibition ([5]; Quantity n 0.19): 8 mm
Diameter of zone of inhibition ([6]; Quantity n 0.019): r
Diameter of zone of inhibition ([6]; Quantity n 0.1): r
Diameter of zone of inhibition ([6]; Quantity n 0.19): r
Diameter of zone of inhibition ([7]; Quantity n [μmol] 0.019): 16 mm
Diameter of zone of inhibition ([7]; Quantity n [μmol] 0.1): 24 mm
Diameter of zone of inhibition ([7]; Quantity n [μmol] 0.19): 28 mm
Diameter of zone of inhibition ([8]; Quantity n [mol] 0.019): r
Diameter of zone of inhibition ([8]; Quantity n [mol] 0.1): r
Diameter of zone of inhibition ([8]; Quantity n [mol] 0.19): r
Diameter of zone of inhibition ([9]; Quantity n 0.019): r
Diameter of zone of inhibition ([9]; Quantity n 0.1): 14 mm
Diameter of zone of inhibition ([9]; Quantity n 0.19): 18 mm
Diameter of zone of inhibition ([10]; Quantity n 0.019): 16 mm
Diameter of zone of inhibition ([10]; Quantity n 0.1): 24 mm
Diameter of zone of inhibition ([10]; Quantity n 0.19): 26 mm
Diameter of zone of inhibition ([11]; Quantity n [mol] 0.019): r
Diameter of zone of inhibition ([11]; Quantity n [mol] 0.1): r
Diameter of zone of inhibition ([11]; Quantity n [mol] 0.19): 8 mm
Diameter of zone of inhibition ([12]; Quantity n 0.019): r
Diameter of zone of inhibition ([12]; Quantity n 0.1): r
Diameter of zone of inhibition ([12]; Quantity n 0.19): r
Diameter of zone of inhibition ([13]; Quantity n 0.019): r
Diameter of zone of inhibition ([13]; Quantity n 0.1): r
Diameter of zone of inhibition ([13]; Quantity n 0.19): 10 mm
Diameter of zone of inhibition ([14]; Quantity n [mol] 0.019): 30 mm
Diameter of zone of inhibition ([14]; Quantity n [mol] 0.1): 34 mm
Diameter of zone of inhibition ([14]; Quantity n [mol] 0.19): 38 mm
Diameter of zone of inhibition ([15]; Quantity n 0.019): 32 mm
Diameter of zone of inhibition ([15]; Quantity n 0.1): 38 mm
Diameter of zone of inhibition ([15]; Quantity n 0.19): 40 mm
Diameter of zone of inhibition ([16]; Quantity n 0.019): 20 mm
Diameter of zone of inhibition ([16]; Quantity n 0.1): 24 mm
Diameter of zone of inhibition ([16]; Quantity n 0.19): 26 mm
Diameter of zone of inhibition ([17]; Quantity n 0.019): 22 mm
Diameter of zone of inhibition ([17]; Quantity n 0.1): 28 mm
Diameter of zone of inhibition ([17]; Quantity n 0.19): 30 mm
Diameter of zone of inhibition ([18]; Quantity n 0.019): 24 mm
Diameter of zone of inhibition ([18]; Quantity n 0.1): 28 mm
Diameter of zone of inhibition ([18]; Quantity n 0.19): 32 mm
Diameter of zone of inhibition ([19]; Quantity n [mol] 0.019): 12 mm
Diameter of zone of inhibition ([19]; Quantity n [mol] 0.1): 26 mm
Diameter of zone of inhibition ([19]; Quantity n [mol] 0.19): 30 mm
Diameter of zone of inhibition ([20]; Quantity n 0.019): 26 mm
Diameter of zone of inhibition ([20]; Quantity n 0.1): 36 mm
Diameter of zone of inhibition ([20]; Quantity n 0.19): 40 mm
chromatographic logP [21]: -3.5

N[C@@H](C(=O)N[C@@H]1C(=O)N2C(C(=O)O)=C(Cl)CS[C@H]12)c1ccccc1 [2c, Cefaclor, reference compound]
Diameter of zone of inhibition ([1]; Quantity n 0.019): 36^1 mm
Diameter of zone of inhibition ([1]; Quantity n 0.1): 38 mm
Diameter of zone of inhibition ([1]; Quantity n 0.19): 40 mm
Diameter of zone of inhibition ([2]; Quantity n 0.019): 36 mm
Diameter of zone of inhibition ([2]; Quantity n 0.1): 38 mm
Diameter of zone of inhibition ([2]; Quantity n 0.19): 40 mm
Diameter of zone of inhibition ([3]; Quantity n 0.019): 24 mm
Diameter of zone of inhibition ([3]; Quantity n 0.1): 30 mm
Diameter of zone of inhibition ([3]; Quantity n 0.19): 32 mm
Diameter of zone of inhibition ([4]; Quantity n 0.019): r^2
Diameter of zone of inhibition ([4]; Quantity n 0.1): 8 mm
Diameter of zone of inhibition ([4]; Quantity n 0.19): 14 mm
Diameter of zone of inhibition ([5]; Quantity n 0.019): r
Diameter of zone of inhibition ([5]; Quantity n 0.1): 10 mm
Diameter of zone of inhibition ([5]; Quantity n 0.19): 12 mm
Diameter of zone of inhibition ([6]; Quantity n 0.019): r
Diameter of zone of inhibition ([6]; Quantity n 0.1): 8 mm
Diameter of zone of inhibition ([6]; Quantity n 0.19): 12 mm
Diameter of zone of inhibition ([7]; Quantity n [μmol] 0.019): 24 mm
Diameter of zone of inhibition ([7]; Quantity n [μmol] 0.1): 30 mm
Diameter of zone of inhibition ([7]; Quantity n [μmol] 0.19): 32 mm
Diameter of zone of inhibition ([8]; Quantity n [mol] 0.019): r
Diameter of zone of inhibition ([8]; Quantity n [mol] 0.1): r
Diameter of zone of inhibition ([8]; Quantity n [mol] 0.19): 10 mm
Diameter of zone of inhibition ([9]; Quantity n 0.019): r
Diameter of zone of inhibition ([9]; Quantity n 0.1): 12 mm
Diameter of zone of inhibition ([9]; Quantity n 0.19): 18 mm
Diameter of zone of inhibition ([10]; Quantity n 0.019): 22 mm
Diameter of zone of inhibition ([10]; Quantity n 0.1): 24 mm
Diameter of zone of inhibition ([10]; Quantity n 0.19): 28 mm
Diameter of zone of inhibition ([11]; Quantity n [mol] 0.019): r
Diameter of zone of inhibition ([11]; Quantity n [mol] 0.1): 10 mm
Diameter of zone of inhibition ([11]; Quantity n [mol] 0.19): 14 mm
Diameter of zone of inhibition ([12]; Quantity n 0.019): r
Diameter of zone of inhibition ([12]; Quantity n 0.1): 8 mm
Diameter of zone of inhibition ([12]; Quantity n 0.19): 12 mm
Diameter of zone of inhibition ([13]; Quantity n 0.019): r
Diameter of zone of inhibition ([13]; Quantity n 0.1): 10 mm
Diameter of zone of inhibition ([13]; Quantity n 0.19): 14 mm
Diameter of zone of inhibition ([14]; Quantity n [mol] 0.019): 26 mm
Diameter of zone of inhibition ([14]; Quantity n [mol] 0.1): 34 mm
Diameter of zone of inhibition ([14]; Quantity n [mol] 0.19): 38 mm
Diameter of zone of inhibition ([15]; Quantity n 0.019): 30 mm
Diameter of zone of inhibition ([15]; Quantity n 0.1): 38 mm
Diameter of zone of inhibition ([15]; Quantity n 0.19): 40 mm
Diameter of zone of inhibition ([16]; Quantity n 0.019): 22 mm
Diameter of zone of inhibition ([16]; Quantity n 0.1): 24 mm
Diameter of zone of inhibition ([16]; Quantity n 0.19): 30 mm
Diameter of zone of inhibition ([17]; Quantity n 0.019): 28 mm
Diameter of zone of inhibition ([17]; Quantity n 0.1): 30 mm
Diameter of zone of inhibition ([17]; Quantity n 0.19): 32 mm
Diameter of zone of inhibition ([18]; Quantity n 0.019): 30 mm
Diameter of zone of inhibition ([18]; Quantity n 0.1): 34 mm
Diameter of zone of inhibition ([18]; Quantity n 0.19): 36 mm
Diameter of zone of inhibition ([19]; Quantity n [mol] 0.019): 14 mm
Diameter of zone of inhibition ([19]; Quantity n [mol] 0.1): 24 mm
Diameter of zone of inhibition ([19]; Quantity n [mol] 0.19): 28 mm
Diameter of zone of inhibition ([20]; Quantity n 0.019): 26 mm
Diameter of zone of inhibition ([20]; Quantity n 0.1): 34 mm
Diameter of zone of inhibition ([20]; Quantity n 0.19): 36 mm
chromatographic logP [21]: -3.28
